Source: publication PMC9487190 (Parasitology research, 2022)

Legend:
EgSERT [1] = target: T1, EgSERT (Echinococcus granulosus, UniProt W6UF91); format: cell-based; conditions: 50 nM radiolabeled substrate, 10 min, room temperature, COS-7 cells
EgSERT [2] = target: T1, EgSERT; format: cell-based; conditions: COS-7 cells, 15 nM – 10 μM serotonin, 10 min
[3] = test system: E. multilocularis metacestode vesicles and primary cells; conditions: ref Herz and Brehm (2021), cited from earlier work
[4] = test system: human cystic echinococcosis (CE); conditions: ref Gottstein et al., 2015; Hemphill et al., 2014; cited from earlier work
EgSERT [5] = target: T1, EgSERT; format: cell-based; conditions: at around 1 μM
[6] = test system: protoscoleces of E. granulosus; conditions: 100 μM; ref Camicia et al., 2013; Herz and Brehm, 2021; cited from earlier work
S. mansoni miracidia = conditions: exogenously added, 50 μM; ref Taft et al., 2010; cited from earlier work

SMILES: N[C@@H](CCC(=O)O)C(=O)O [glutamate, glutamic acid]
- transport of radiolabeled substrate by EgSERT compared with background (EgSERT [1]): does not transport

SMILES: NCCc1c[nH]c2ccc(O)cc12 [serotonin, 5-hydroxytryptamine]
- Vmax of serotonin uptake (EgSERT [2]): 615 ± 33 fmol/min/well
- transport of radiolabeled substrate by EgSERT compared with background (EgSERT [1]): significantly higher accumulation
- metacestode vesicle formation and cell proliferation from primary cells ([3]; exogenous, dose dependent): induces metacestode vesicle formation and cell proliferation

SMILES: NCC(=O)O [glycine]
- transport of radiolabeled substrate by EgSERT compared with background (EgSERT [1]): does not transport

SMILES: CCCSc1ccc2nc(NC(=O)OC)[nH]c2c1 [ABZ, albendazole]
- share of CE cases in which treatment is ineffective [4]: ~ 40%

SMILES: NCCCC(=O)O [GABA]
- transport of radiolabeled substrate by EgSERT compared with background (EgSERT [1]): does not transport

SMILES: NCCc1ccc(O)c(O)c1 [dopamine]
- transport of radiolabeled substrate by EgSERT compared with background (EgSERT [1]): does not transport

SMILES: Fc1ccc([C@@H]2CCNC[C@H]2COc2ccc3c(c2)OCO3)cc1 [paroxetine]
- metacestode vesicle damage and viability of primary cell culture ([3]; 100 μM): significant metacestode vesicle damage and cell viability reduction

SMILES: CN(C)CCCC1(c2ccc(F)cc2)OCc2cc(C#N)ccc21 (stereo not drawn) [citalopram]
- inhibition of serotonin transport by EgSERT (EgSERT [5]): almost complete inhibition
- effect on motility and development of protoscoleces [6]: strong inhibitory effect
- effect on miracidial transformation rates (S. mansoni miracidia): detrimental effect
